Experimental data reported in publication PMC6009855, “Design and synthesis of naphthalimide group-bearing thioglycosides as novel β-N-acetylhexosaminidases inhibitors” (Journal of Enzyme Inhibition and Medicinal Chemistry, 2018).
Read-outs that look alike come from different tables or passages of the source. Values belong to the compound of their own block, whether it stands above or below them.

Key:
[1] = target: T1, hsHexB (Homo sapiens, UniProt P07686); test: Inhibitory potency assay, end-point, 4-MU-GlcNAc substrate, pH 4.0; type: biochemical; settings: for Inhibition potency against hsHexB (in words): each compound at 20 µM, Figure 3; for Ki: 4-MU-GlcNAc, pH 4.0, 30 °C, 30 min, read-out: Ki against hsHexB
T1 construct: His6; made in house; host or cells: Pichia pastoris GS115 (pPIC9 vector)
T1 sequence (P07686 122-556): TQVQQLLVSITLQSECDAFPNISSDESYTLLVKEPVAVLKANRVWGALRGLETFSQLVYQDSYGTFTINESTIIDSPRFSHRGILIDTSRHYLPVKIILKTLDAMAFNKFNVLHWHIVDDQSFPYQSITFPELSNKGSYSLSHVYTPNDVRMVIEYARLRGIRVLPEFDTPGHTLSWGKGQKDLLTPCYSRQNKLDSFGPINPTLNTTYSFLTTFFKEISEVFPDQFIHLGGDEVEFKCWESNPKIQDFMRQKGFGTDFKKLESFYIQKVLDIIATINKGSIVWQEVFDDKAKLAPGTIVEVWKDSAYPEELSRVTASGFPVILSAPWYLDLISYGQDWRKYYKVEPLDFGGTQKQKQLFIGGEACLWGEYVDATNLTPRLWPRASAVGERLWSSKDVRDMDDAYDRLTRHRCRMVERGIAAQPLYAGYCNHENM
Method: (§1) Gene encoding hsHexB, which was engineered to contain a His6-tagged fusion protein, was cloned into pPIC9 expression vector (Invitrogen, Carlsbad, CA, USA), and subsequently transformed into Pichia pastoris GS115 (Invitrogen, Carlsbad, CA, USA) by electroporation. The cells were first cultured in BMGY broth (1% yeast extract, 1% glycerol, 2% peptone, 0.2% biotin, 1.34% yeast nitrogen, 0.1 M potassium phosphate, pH 6.0) at 30 °C. Methanol was added into the culture daily at a final concentration of 1% (v/v). When OD600 value reached 2.0 (after ∼120 h), the cells were harvested by centrifugation at 6000g for 10 min. While the pellet was resuspended in BMMY broth (1% yeast extract, 1% methanol, 2% peptone, 0.2% biotin, 1.34% yeast nitrogen, 0.1 M potassium phosphate, pH 6.0), the supernatant was subjected to ammonium sulfate precipitation (75% saturation) at 4 °C, in which the precipitate was further resuspended in distilled water and then desalted in buffer A (20 mM sodium phosphate, 0.5 M sodium chloride, pH 7.4). Subsequently, the resuspension solution was centrifuged at 17,000g for 30 min at 4 °C and passed through a 0.2-µm filter prior to loading onto a 5-ml HisTrap FF affinity column (GE Healthcare, Chicago, IL, USA), which was pre-equilibrated with buffer A. To remove nonspecific binding proteins, the column was sequentially washed with buffer A-containing 20 mM imidazole and buffer A-containing 50 mM imidazole. Finally, the target protein was eluted with buffer B (20 mM sodium phosphate, 0.5 M sodium chloride, 150 mM imidazole, pH 7.4). Purity of the protein was further analyzed by SDS–PAGE. hOGA was overexpressed in Escherichia coli BL21(DE3) and purified as described previously.
(§2) Potencies of hsHexB and hOGA were assayed by end-point experiment, in which 4-methylumbelliferyl N-acetyl-β-D-glucosaminide (4-MU-GlcNAc; Sigma, St. Louis, MO, USA) was used as a substrate. Various concentrations of inhibitors and substrates (50 µM, 25 µM, and 12.5 µM) were mixed with Britton-Robinson buffer (hsHexB, pH 4.0; hOGA, pH 6.0), dimethylsulfoxide at a final concentration of 2%, enzyme, and 40 µM 4-MU-GlcNAc in a reaction of 100-µl final volume, and incubated at 30 °C for 30 min. Then, the enzymatic reaction was terminated by the addition of 100 µl of 0.5 M sodium carbonate solution. The fluorescence of the released 4-methylumbelliferone was quantified (excitation at 366 nm, emission at 445 nm) on a Varioskan Flash microplate reader (Thermo Fisher Scientific, Waltham, MA, USA). To determine the inhibition constant (Ki), the reciprocal plots of 1/velocity versus inhibitor were constructed. Data analysis was performed using Graph Pad Prism software (Graph Pad Software Inc., San Diego, CA, USA).

[2] = test system: hsHexA; set-up: method as in PMID 17317569; settings: read-out: IC50 against hsHexA; cited from earlier work
[3] = test system: GH20 and GH84 β-N-acetylhexosaminidases; set-up: method as in PMID 22280348, PMID 23688083; settings: cited from earlier work
[4] = target: T1, hsHexB; set-up: method as in PMID 20187655; settings: cited from earlier work
[5] = target: hsHex; set-up: method as in PMID 24900704; settings: read-out: Ki against hsHex; cited from earlier work
[6] = target: T2, hOGA (Homo sapiens, UniProt O60502); test: Inhibitory potency assay, end-point, 4-MU-GlcNAc substrate, pH 6.0; type: biochemical; settings: for Ki: 4-MU-GlcNAc, pH 6.0, 30 °C, 30 min, read-out: Ki against hOGA; for Inhibition potency against hOGA (in words): each compound at 20 µM, Figure 3
T2 construct: made in house; host or cells: Escherichia coli BL21(DE3)
T2 sequence (O60502 1-916): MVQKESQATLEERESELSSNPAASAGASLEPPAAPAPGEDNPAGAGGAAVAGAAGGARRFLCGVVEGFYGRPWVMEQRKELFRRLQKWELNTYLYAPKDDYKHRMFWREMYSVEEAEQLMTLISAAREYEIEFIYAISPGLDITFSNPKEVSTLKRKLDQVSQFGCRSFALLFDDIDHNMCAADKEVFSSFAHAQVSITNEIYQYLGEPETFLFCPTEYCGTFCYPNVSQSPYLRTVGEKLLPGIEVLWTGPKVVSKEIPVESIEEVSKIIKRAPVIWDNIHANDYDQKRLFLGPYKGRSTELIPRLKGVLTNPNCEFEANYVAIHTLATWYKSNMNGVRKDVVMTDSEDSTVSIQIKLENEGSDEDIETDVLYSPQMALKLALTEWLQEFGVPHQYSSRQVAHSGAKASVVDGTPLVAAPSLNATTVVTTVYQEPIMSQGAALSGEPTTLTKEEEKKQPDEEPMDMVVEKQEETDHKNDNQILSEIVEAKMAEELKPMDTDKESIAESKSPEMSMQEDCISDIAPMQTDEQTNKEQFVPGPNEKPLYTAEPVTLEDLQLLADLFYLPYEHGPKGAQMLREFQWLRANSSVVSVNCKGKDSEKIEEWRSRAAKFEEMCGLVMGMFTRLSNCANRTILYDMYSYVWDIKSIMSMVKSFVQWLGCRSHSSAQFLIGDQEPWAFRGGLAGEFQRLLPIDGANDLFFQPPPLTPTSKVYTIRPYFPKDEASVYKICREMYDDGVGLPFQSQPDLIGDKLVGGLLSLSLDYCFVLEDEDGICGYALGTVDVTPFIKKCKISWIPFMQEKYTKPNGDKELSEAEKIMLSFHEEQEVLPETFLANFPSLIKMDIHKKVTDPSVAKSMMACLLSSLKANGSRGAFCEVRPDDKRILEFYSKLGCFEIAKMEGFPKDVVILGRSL
Method: as §1, §2

[7] = target: GH20 insect β-N-acetylhexosaminidase OfHex1; set-up: method as in PMID 25155420; settings: read-out: Ki against OfHex1; cited from earlier work

Compound: 2-[2-[2-[(2-acetamido-β-D-glucopyranosyl)thio]ethylamino]ethyl]-1H-benzo[de] isoquinoline-1,3(2H)-dione [compound 15a]
- Inhibition potency against hsHexB (in words) [1]: highest potencies

Compound: O=C1c2cccc3cccc(c23)C(=O)N1CCNCCN1C(=O)c2cccc3cccc(c23)C1=O [M-31850]
- IC50 [2]: 6 µM

Compound: CC1=N[C@@H]2[C@@H](O)[C@H](O)[C@@H](CO)O[C@@H]2S1 [NAG-thiazoline]
- Selectivity between GH20 and GH84 β-N-acetylhexosaminidases [3]: non-selectivity

Compound: CC(=O)N[C@H]1c2nc(CC(=O)O)cn2[C@H](CO)[C@H](O)[C@@H]1O [Nagstatin]
- Selectivity between GH20 and GH84 β-N-acetylhexosaminidases [3]: non-selectivity

Compound: CC(=O)N[C@H]1/C(=N/OC(=O)Nc2ccccc2)O[C@H](CO)[C@@H](O)[C@@H]1O [PUGNAc]
- Selectivity between GH20 and GH84 β-N-acetylhexosaminidases [3]: non-selectivity

Compound: COc1ccc(CN(CCCCCCCN2C[C@H](NC(C)=O)[C@@H](O)[C@H](O)[C@H]2CO)Cc2ccc(OC)cc2)cc1 [compound 4 (5)]
- Selectivity for hsHexB toward GH84 hOGA [4]: 250,000 fold
- Ki ([4]; read-out: Ki against hsHexB): 0.00069 µM

Compound: COc1ccc(CNCCN2C(=O)c3cccc4cccc(c34)C2=O)cc1 [compound 7a (7)]
- Ki [5]: 0.63 µM

- Ki ([1]; Dixon plots): 30.4 µM
- Type of inhibition of hOGA ([6]; Dixon plots, Figure 4B): competitive inhibitors
- Ki ([6]; Dixon plots): 3.76 µM
- Inhibition potency against hOGA (in words) [6]: highest potency
- melting point: 218 to 220 °C
Compound: CC(=O)N[C@@H]1[C@@H](O)[C@H](O)[C@@H](CO)O[C@H]1SCCNCCCN1C(=O)c2cccc3cccc(c23)C1=O [compound 15b]

- Inhibition potency against hsHexB (in words) [1]: highest potencies
- melting point: 230 to 232 °C
Compound: CC(=O)N[C@@H]1[C@@H](O)[C@H](O)[C@@H](CO)O[C@H]1SCCCNCCN1C(=O)c2cccc3cccc(c23)C1=O [compound 15d]

- Inhibition potency against hsHexB (in words) [1]: highest potencies
Compound: CC(=O)N[C@@H]1[C@@H](O)[C@H](O)[C@@H](CO)O[C@H]1SCCCCCNCCN1C(=O)c2cccc3cccc(c23)C1=O [compound 15g]

- Type of inhibition of hsHexB ([1]; Dixon plots, Figure 4A): competitive inhibitors
- Ki ([1]; Dixon plots): 0.91 µM
- Inhibition potency against hsHexB (in words) [1]: highest potencies
- Ki ([6]; Dixon plots): > 100 µM
Compound: CC(=O)N[C@@H]1[C@@H](O)[C@H](O)[C@@H](CO)O[C@H]1SCCCCCCNCCN1C(=O)c2cccc3cccc(c23)C1=O [compound 15j]

- Inhibition potency against hsHexB (in words) [1]: considerably decreased
Compound: CC(=O)N[C@@H]1[C@@H](O)[C@H](O)[C@@H](CO)O[C@H]1SCCCCCCNCCCN1C(=O)c2cccc3cccc(c23)C1=O [compound 15k]

- Inhibition potency against hsHexB (in words) [1]: considerably decreased
Compound: CC(=O)N[C@@H]1[C@@H](O)[C@H](O)[C@@H](CO)O[C@H]1SCCCCCCNCCCCN1C(=O)c2cccc3cccc(c23)C1=O [compound 15l]

- Inhibition potency against hsHexB (in words) [1]: hardly showed activity
- Inhibition potency against hOGA (in words) [6]: hardly showed activity
- melting point: 236 to 238 °C
Compound: CC(=O)N[C@@H]1[C@@H](O)[C@H](O)[C@@H](CO)O[C@H]1SCCCCS[C@@H]1O[C@H](CO)[C@@H](O)[C@H](O)[C@H]1NC(C)=O [compound 17, 1,4-bis[(2-acetamido-2-deoxy-β-D-glucopyranosyl)thio] butane]

Compound: Cc1nnc(CNCCN2C(=O)c3cccc4cccc(c34)C2=O)s1 [compound Q1]
- Ki [7]: 4.28 µM
